# Publication PMC11012124, “Synthesis of Novel Triazine-Based Chalcones and 8,9-dihydro-7H-pyrimido[4,5-b][1,4]diazepines as Potential Leads in the Search of Anticancer, Antibacterial and Antifungal Agents” (International Journal of Molecular Sciences, 2024)
# Legend:
# SNB-19 = test: cells; details: Homo sapiens, SNB-19, 48 h; for CC50: read-out: LC50
# HOP-92 = test: cells; details: Homo sapiens, HOP-92, 48 h; for CC50: read-out: LC50
# HOP-62 = test: cells; details: Homo sapiens, HOP-62, 48 h; for CC50: read-out: LC50
# PC-3 = test: cells; details: Homo sapiens, PC-3, 48 h; for CC50: read-out: LC50
# U251 = test: cells; details: Homo sapiens, U-251, 48 h; for GI50: U251, 48 h; for CC50: read-out: LC50
# HS 578T = test: cells; details: Homo sapiens, 48 h; for CC50: read-out: LC50
# UO-31 = test: cells; details: Homo sapiens, UO-31, 48 h; for CC50: read-out: LC50
# HCC-2998 = test: cells; details: Homo sapiens, HCC 2998, 48 h; for CC50: read-out: LC50
# A549/ATCC = test: cells; details: Homo sapiens, A549, 48 h; for CC50: read-out: LC50
# OVCAR-3 = test: cells; details: Homo sapiens, OVCAR-3, 48 h; for CC50: read-out: LC50
# SNB-75 = test: cells; details: Homo sapiens, SNB-75, 48 h; for CC50: read-out: LC50
# NCI-H226 = test: cells; details: Homo sapiens, NCI-H226, 48 h; for CC50: read-out: LC50
# NCI-H23 = test: cells; details: Homo sapiens, NCI-H23, 48 h; for CC50: read-out: LC50
# EKVX = test: cells; details: Homo sapiens, 48 h; for CC50: read-out: LC50
# MOLT-4 = test: cells; details: Homo sapiens, MOLT-4, 48 h; for CC50: read-out: LC50
# UACC-257 = test: cells; details: Homo sapiens, UACC-257, 48 h; for CC50: read-out: LC50
# A498 = test: cells; details: Homo sapiens, A498, 48 h; for CC50: read-out: LC50
# M14 = test: cells; details: Homo sapiens, M14, 48 h; for CC50: read-out: LC50
# HCT-116 = test: cells; details: Homo sapiens, HCT-116, 48 h; for CC50: read-out: LC50
# ACHN = test: cells; details: Homo sapiens, 48 h; for CC50: read-out: LC50
# 60 cancer cell lines = test: NCI-60 one-dose screen (10 μM); assay type: cell-based; details: Homo sapiens; one dose of 10 μM, mean over 60 cancer cell lines; read-out: Mean Growth Percent (MGP)
# Excerpt: Additionally, the mean of the growth percentages (MGP) of each compound against all the 60 cancer cell lines is also reported, which is used as one of the selection criteria to continue with tests at five concentration doses.
# BT-549 = test: cells; details: Homo sapiens, BT-549, 48 h; for CC50: read-out: LC50
# SF-295 = test: cells; details: Homo sapiens, SF-295, 48 h; for CC50: read-out: LC50
# LOX IMVI = test: cells; details: Homo sapiens, 48 h; for CC50: read-out: LC50, LOX IMVI, 48 h
# RPMI-8226 = test: cells; details: Homo sapiens, RPMI-8226, 48 h; for CC50: read-out: LC50
# MDA-MB-231/ATCC = test: cells; details: Homo sapiens, MDA-MB-231, 48 h; for CC50: read-out: LC50
# UACC-62 = test: cells; details: Homo sapiens, UACC-62, 48 h; for CC50: read-out: LC50
# MDA-MB-468 = test: cells; details: Homo sapiens, MDA-MB-468, 48 h; for CC50: read-out: LC50
# SK-MEL-5 = test: cells; details: Homo sapiens, SK-MEL-5, 48 h; for CC50: read-out: LC50
# HCT-15 = test: cells; details: Homo sapiens, HCT-15, 48 h; for CC50: read-out: LC50
# 786-0 = test: cells; details: Homo sapiens, 786-0, 48 h; for CC50: read-out: LC50
# NCI-H322M = test: cells; details: Homo sapiens, 48 h; for CC50: read-out: LC50
# HT29 = test: cells; details: Homo sapiens, HT-29, 48 h; for CC50: read-out: LC50
# SF-268 = test: cells; details: Homo sapiens, SF-268, 48 h; for CC50: read-out: LC50
# RXF 393 = test: cells; details: Homo sapiens, RXF 393, 48 h; for CC50: read-out: LC50
# COLO 205 = test: cells; details: Homo sapiens, COLO 205, 48 h; for CC50: read-out: LC50
# SF-539 = test: cells; details: Homo sapiens, SF-539, 48 h; for CC50: read-out: LC50, SF-539, 48 h
structure (smiles),measurement,setting,value
COc1ccc(/C=C/C(=O)c2ccc(S(=O)(=O)NCCNc3nc(Nc4ccc(F)cc4)nc(N(C)C)n3)cc2)cc1 [24c],GI50,SNB-19,5.58 µM
same,CC50,SNB-19,> 100 µM
same,GI50,HOP-92,3.25 µM
same,CC50,HOP-92,> 100 µM
same,GI50,HOP-62,17.1 µM
same,CC50,HOP-62,> 100 µM
same,GI50,PC-3,3.5 µM
same,CC50,PC-3,> 100 µM
same,GI50,U251,6.7 µM
same,CC50,U251,55.3 µM
same,GI50,HS 578T,4.68 µM
same,CC50,HS 578T,> 100 µM
same,GI50,UO-31,3.78 µM
same,CC50,UO-31,> 100 µM
same,GI50,HCC-2998,5.47 µM
same,CC50,HCC-2998,43.2 µM
same,GI50,A549/ATCC,6.54 µM
same,CC50,A549/ATCC,> 100 µM
same,GI50,OVCAR-3,5.01 µM
same,CC50,OVCAR-3,59.4 µM
same,GI50,SNB-75,3.57 µM
same,CC50,SNB-75,> 100 µM
same,GI50,NCI-H226,3.8 µM
same,CC50,NCI-H226,> 100 µM
same,GI50,NCI-H23,10.4 µM
same,CC50,NCI-H23,> 100 µM
same,GI50,EKVX,4.12 µM
same,CC50,EKVX,> 100 µM
same,GI50,MOLT-4,3.12 µM
same,CC50,MOLT-4,> 100 µM
same,GI50,UACC-257,13.3 µM
same,CC50,UACC-257,> 100 µM
same,GI50,A498,10 µM
same,CC50,A498,87.8 µM
same,GI50,M14,4.27 µM
same,CC50,M14,99.6 µM
same,GI50,HCT-116,1.86 µM
same,CC50,HCT-116,7.07 µM
same,GI50,ACHN,3.4 µM
same,CC50,ACHN,> 100 µM
same,activity at 10 µM,60 cancer cell lines,24.7%
same,GI50,BT-549,13.2 µM
same,CC50,BT-549,56.7 µM
same,GI50,SF-295,5.05 µM
same,CC50,SF-295,62.4 µM
same,GI50,LOX IMVI,3.23 µM
same,CC50,LOX IMVI,34 µM
same,GI50,RPMI-8226,2.96 µM
same,CC50,RPMI-8226,> 100 µM
same,GI50,MDA-MB-231/ATCC,2.73 µM
same,CC50,MDA-MB-231/ATCC,63 µM
same,GI50,UACC-62,4.79 µM
same,CC50,UACC-62,51.6 µM
same,GI50,MDA-MB-468,2.57 µM
same,CC50,MDA-MB-468,52.6 µM
same,GI50,SK-MEL-5,3.5 µM
same,CC50,SK-MEL-5,36.4 µM
same,GI50,HCT-15,2.71 µM
same,CC50,HCT-15,27.4 µM
same,GI50,786-0,6.33 µM
same,CC50,786-0,> 100 µM
same,GI50,NCI-H322M,10.2 µM
same,CC50,NCI-H322M,> 100 µM
same,GI50,HT29,1.83 µM
same,CC50,HT29,7.63 µM
same,GI50,SF-268,4.43 µM
same,CC50,SF-268,> 100 µM
same,GI50,RXF 393,2.59 µM
same,CC50,RXF 393,41.7 µM
same,GI50,COLO 205,3.46 µM
same,CC50,COLO 205,45.7 µM
same,GI50,SF-539,10.3 µM
same,CC50,SF-539,51.2 µM
COc1cc(C2CC(c3ccc(Cl)cc3)=Nc3c(N)nc(N)nc3N2)ccc1Oc1nc(Nc2ccc(F)cc2)nc(N(C)C)n1 (stereo not shown) [29e],GI50,SNB-19,> 100 µM
same,CC50,SNB-19,> 100 µM
same,GI50,HOP-92,3 µM
same,CC50,HOP-92,> 100 µM
same,GI50,HOP-62,> 100 µM
same,CC50,HOP-62,> 100 µM
same,GI50,PC-3,6.16 µM
same,CC50,PC-3,> 100 µM
same,GI50,U251,> 100 µM
same,CC50,U251,> 100 µM
same,GI50,HS 578T,84.8 µM
same,CC50,HS 578T,> 100 µM
same,CC50,UO-31,> 100 µM
same,GI50,HCC-2998,45.3 µM
same,CC50,HCC-2998,> 100 µM
same,GI50,A549/ATCC,> 100 µM
same,CC50,A549/ATCC,> 100 µM
same,GI50,OVCAR-3,> 100 µM
same,CC50,OVCAR-3,> 100 µM
same,GI50,SNB-75,3.24 µM
same,CC50,SNB-75,> 100 µM
same,GI50,NCI-H226,> 100 µM
same,CC50,NCI-H226,> 100 µM
same,GI50,NCI-H23,> 100 µM
same,CC50,NCI-H23,> 100 µM
same,GI50,EKVX,> 100 µM
same,CC50,EKVX,> 100 µM
same,GI50,MOLT-4,8.54 µM
same,CC50,MOLT-4,> 100 µM
same,GI50,UACC-257,> 100 µM
same,CC50,UACC-257,> 100 µM
same,GI50,A498,> 100 µM
same,CC50,A498,> 100 µM
same,GI50,M14,> 100 µM
same,CC50,M14,> 100 µM
same,GI50,HCT-116,12.5 µM
same,CC50,HCT-116,> 100 µM
same,GI50,ACHN,> 100 µM
same,CC50,ACHN,> 100 µM
same,activity at 10 µM,60 cancer cell lines,40.9%
same,GI50,BT-549,35.5 µM
same,CC50,BT-549,> 100 µM
same,GI50,SF-295,> 100 µM
same,CC50,SF-295,> 100 µM
same,GI50,LOX IMVI,47.8 µM
same,CC50,LOX IMVI,> 100 µM
same,GI50,RPMI-8226,26.4 µM
same,CC50,RPMI-8226,> 100 µM
same,GI50,MDA-MB-231/ATCC,6.73 µM
same,CC50,MDA-MB-231/ATCC,> 100 µM
same,GI50,UACC-62,> 100 µM
same,CC50,UACC-62,> 100 µM
same,GI50,MDA-MB-468,17.8 µM
same,CC50,MDA-MB-468,> 100 µM
same,GI50,SK-MEL-5,17.2 µM
same,CC50,SK-MEL-5,> 100 µM
same,GI50,HCT-15,76.6 µM
same,CC50,HCT-15,> 100 µM
same,GI50,786-0,> 100 µM
same,CC50,786-0,> 100 µM
same,GI50,NCI-H322M,> 100 µM
same,CC50,NCI-H322M,> 100 µM
same,GI50,HT29,29.4 µM
same,CC50,HT29,> 100 µM
same,GI50,SF-268,> 100 µM
same,CC50,SF-268,> 100 µM
same,GI50,RXF 393,2.46 µM
same,CC50,RXF 393,> 100 µM
same,GI50,COLO 205,> 100 µM
same,CC50,COLO 205,> 100 µM
same,GI50,SF-539,> 100 µM
same,CC50,SF-539,> 100 µM
